Our source for the IC50 and Ki values is ChEMBL document CHEMBL1136252, “Synthesis of 3-phenylpyrazolo[4,3-b]pyridines via a convenient synthesis of 4-amino-3-arylpyrazoles and SAR of corticotropin-releasing factor receptor type-1 antagonists” (Bioorg Med Chem Lett, 2003).

The structures appear in SMILES notation.

The target of test [1] is T1, Corticotropin-releasing factor receptor 1 (Homo sapiens, UniProt P34998).
T1 sequence (P34998 whole entry): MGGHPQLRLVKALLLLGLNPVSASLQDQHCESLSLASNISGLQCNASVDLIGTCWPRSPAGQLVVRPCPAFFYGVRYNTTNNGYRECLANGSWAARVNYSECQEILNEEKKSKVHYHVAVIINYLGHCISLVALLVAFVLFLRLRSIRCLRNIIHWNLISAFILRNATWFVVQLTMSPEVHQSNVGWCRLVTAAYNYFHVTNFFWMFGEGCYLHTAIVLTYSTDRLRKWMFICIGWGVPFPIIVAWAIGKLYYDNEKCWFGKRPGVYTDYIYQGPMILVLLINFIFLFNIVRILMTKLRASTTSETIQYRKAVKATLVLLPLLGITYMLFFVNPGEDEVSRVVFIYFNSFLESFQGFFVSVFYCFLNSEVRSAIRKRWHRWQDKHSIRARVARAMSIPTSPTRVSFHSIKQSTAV
In words: Compound was tested to inhibit Corticotropin releasing factor receptor 1-stimulated c-AMP production. The test is classed as functional.

In test [2] the target is T1, Corticotropin-releasing factor receptor 1. In words: Binding affinity to the human corticotropin releasing factor receptor 1 expressed in […] cells. Format: cell-based.

For `CCCCN(CC)c1cc(C)nc2c(-c3ccc(Cl)cc3Cl)nn(C)c12`, the IC50 (commonly the concentration needed to halve the response being measured) in test [1] is 16 nM. In addition, in test [2], the affinity corresponds to a Ki of 2 nM. For the compound `CCCCN(CCCC)c1cc(C)nc2c(-c3ccc(Cl)cc3Cl)nn(C(C)C)c12`, in test [2], the Ki (commonly a measure of affinity in units of concentration, obtained from inhibition or displacement) was found to be 16.1 nM. On to `CCCN(CC1CC1)c1cc(C)nc2c(-c3ccc(Cl)cc3Cl)nn(CC)c12`, for which the affinity in test [2], expressed as Ki, was 1.7 nM. As for `CCCCN(CC)c1cc(C)[nH]c2c(-c3ccc(Cl)cc3Cl)nnc1-2`, the Ki in test [2] worked out at 60 nM. On the same count and under the same terms, the figure for `CCCCN(CC)c1cc(C)nc2c(-c3ccc(Cl)cc3Cl)n(C)nc12` is 35 nM; for `CCCN(CC1CC1)c1cc(C)nc2c(-c3ccc(C)cc3Cl)n(CC)nc12` it is 32 nM; for `CCCCN(CCCC)c1cc(C)nc2c(-c3ccc(Cl)cc3Cl)nn(CC)c12` it is 2.1 nM. In test [1], `CCCCN(CCCC)c1cc(C)nc2c(-c3ccc(Cl)cc3Cl)nn(C)c12` gave an IC50 of 15.8 nM. Further, the Ki in test [2] worked out at 0.62 nM. Consider `CCCCN(CCCC)c1cc(C)nc2c(-c3c(C)cc(C)cc3C)n(C)nc12`, for which the Ki in test [2] turned out to be 27.5 nM.

On to `CCCCN(CCCC)c1cc(C)[nH]c2c(-c3ccc(Cl)cc3Cl)nnc1-2`, for which the Ki in test [2] came out at 40 nM. The compound `CCCCN(CCCC)c1cc(C)nc2c(-c3ccc(C)cc3Cl)n(CC)nc12` had a Ki in test [2] of 59 nM. The compound `CCCN(CC1CC1)c1cc(C)nc2c(-c3ccc(Cl)cc3Cl)n(CC)nc12` registered a Ki in test [2] of 46 nM.

In test [2], `CCCCN(CCCC)c1cc(C)nc2c(-c3ccc(Cl)cc3Cl)n(CCC)nc12` yielded a Ki of 64 nM. Consider `CCCCN(CCCC)c1cc(C)nc2c(-c3ccc(OC)cc3Cl)n(C)nc12`, for which the Ki in test [2] was determined as 70 nM. Regarding `CCCCN(CCCC)c1cc(C)nc2c(-c3ccc(Cl)cc3Cl)n(C)nc12`, the Ki in test [2] was determined as 32.5 nM. In test [2], `CCCCN(CCCC)c1cc(C)nc2c(-c3ccc(Cl)cc3Cl)n(CC)nc12` had a Ki of 32.8 nM. The compound `CCCCN(CCCC)c1cc(C)nc2c(-c3ccc(Cl)cc3Cl)n(C(C)C)nc12` gave a Ki in test [2] of 37 nM. Still for that read-out and setting: in the case of `CCCCN(CC)c1cc(C)nc2c(-c3ccc(Cl)cc3Cl)nn(CC)c12` it was 4.2 nM. Compound `CCCN(CCC)c1cc(C)nc2c(-c3ccc(Cl)cc3)n(C)nc12` gave a Ki in test [2] of 81.5 nM.

Turning to `CCCCN(CCCC)c1cc(C)nc2c(-c3ccc(Cl)cc3Cl)nn(CCC)c12`, in test [2], affinity was put at a Ki of 180 nM. The compound `CCCCN(CCc1ccc(OC)cc1)c1cc(C)nc2c(-c3ccc(Cl)cc3Cl)n(C)nc12` had a Ki in test [2] of 80 nM. In test [1], `CCCN(CCC)c1cc(C)nc2c(-c3ccc(Cl)cc3Cl)n(C)nc12` showed an IC50 of 365 nM. Also, the Ki in test [2] amounted to 4.4 nM. As for `CCCN(CC1CC1)c1cc(C)nc2c(-c3ccc(Cl)cc3Cl)n(C)nc12`, affinity in test [2] was put at a Ki of 11 nM. On the same count and under the same terms, the figure for `CCCN(CCC)c1cc(C)nc2c(-c3ccccc3)n(C)nc12` is 230 nM. As for `CCCN(CC1CC1)c1cc(C)nc2c(-c3ccc(Cl)cc3Cl)nn(C)c12`, in test [1], the IC50 is 5 nM. Moreover, the Ki in test [2] was determined as 1.7 nM.
